Columns and labels:
[1] = biological target: T1, ALK5 (TGF-β RI) (Homo sapiens, UniProt P36897); conditions: high concentrations, approximate; cited from earlier work
T1 sequence (P36897 34-503): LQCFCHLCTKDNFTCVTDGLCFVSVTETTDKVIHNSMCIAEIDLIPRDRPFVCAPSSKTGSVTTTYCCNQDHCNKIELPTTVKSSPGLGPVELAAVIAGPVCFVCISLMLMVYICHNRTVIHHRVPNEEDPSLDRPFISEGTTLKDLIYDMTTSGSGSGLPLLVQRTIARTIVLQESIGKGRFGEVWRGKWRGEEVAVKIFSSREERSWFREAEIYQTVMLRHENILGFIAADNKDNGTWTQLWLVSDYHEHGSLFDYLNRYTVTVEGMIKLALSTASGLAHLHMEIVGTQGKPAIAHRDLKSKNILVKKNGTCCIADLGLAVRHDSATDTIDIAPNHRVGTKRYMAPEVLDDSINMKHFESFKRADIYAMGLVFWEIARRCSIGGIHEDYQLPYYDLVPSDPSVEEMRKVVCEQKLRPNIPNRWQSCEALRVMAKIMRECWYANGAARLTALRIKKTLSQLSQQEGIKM

[2] = system: epithelial stem cells derived from human tissues or other mammals; assay: Feeder-free epithelial stem cell culture; format: cell-based
Excerpt: (§1) Another illustrative system is a medium referred to as SGM-63+. The SGM-63+ medium has been tested and proven to support robust growth of epithelial stem cells derived from human tissues or other mammals in the absence of the irradiate feeder of mouse fibroblast cells (3T3-J2). For example, lung stem cells, esophagus stem cell, bladder stem cells and ovarian cancer stem cells, can all grow robustly in this culture system that comprises SGM-63+ medium without the need of irradiated 3T3-J2 feeders in the illustrated example.
(§2) The base medium comprises DMEM, F12, FBS, L-glutamine, Adenine, Pen/Strep, Insulin, T3, Hydrocortisone, EGF and is further added a Rock inhibitor, TGF-beta inhibitor, BMP4 inhibitor, VEGF inhibitor, TrkA inhibitor, Ponatinib, CK2 inhibitor, Syk inhibitor, LPA Receptor antagonist, Oct 4-activating compound 1, GSK3 inhibitor and FGF10. […] R-spondin was found not required to support the self-renewal and multipotency of stratified epithelial stem cells.

[3] = system: epithelial stem cells derived from human tissues or other mammals; assay: Epithelial stem cell culture on irradiated 3T3-J2 feeder; conditions: feeder-based medium
Excerpt: as §1, with “An” for “Another”, “SQM.” for “SGM-63+.”, “SQM” for “SGM-63+”, “presence” for “absence”, “SQM medium, along with” for “SGM-63+ medium without the need of”
as §2, with “Ponatinib” for “Ponatinib, CK2 inhibitor, Syk inhibitor, LPA Receptor antagonist, Oct 4-activating compound 1, GSK3 inhibitor”

Compound	concentration at which ALK5 may be inhibited [1] [µM]	effect of inclusion in the medium on epithelial stem cell self-renewal [2]	effect of inclusion in the medium on epithelial stem cell self-renewal [3]
4-[5-(4-Fluorophenyl)-2-[4-(methylsulfonyl)phenyl]-1H-imidazol-4-yl]pyridine [SB-203580]	≥ 10	–	–
NC(=O)c1cccnc1 [nicotinamide]	–	induce the abortion of some epithelial stem cell (lung, esophagus etc) self-renewal	induce the abortion of some epithelial stem cell (lung, esophagus etc) self-renewal
jagged1: Notch agonist, surface-bound or secreted Notch ligand	–	induce the abortion of some epithelial stem cell (lung, esophagus etc) self-renewal	induce the abortion of some epithelial stem cell (lung, esophagus etc) self-renewal

Source: patent publication US20240158756A1, “FEEDER-BASED AND FEEDER-FREE STEM CELL CULTURE SYSTEMS FOR STRATIFIED EPITHELIAL STEM CELLS, AND USES RELATED THERETO” (University of Houston System, priority 2019, published 2024)
